Measurements as given in publication PMC4050187 (FEBS Open Bio, 2014).

Target: T1, Cj0511His (Campylobacter jejuni, UniProt Q0PB04)
T1 sequence (Q0PB04 36-444): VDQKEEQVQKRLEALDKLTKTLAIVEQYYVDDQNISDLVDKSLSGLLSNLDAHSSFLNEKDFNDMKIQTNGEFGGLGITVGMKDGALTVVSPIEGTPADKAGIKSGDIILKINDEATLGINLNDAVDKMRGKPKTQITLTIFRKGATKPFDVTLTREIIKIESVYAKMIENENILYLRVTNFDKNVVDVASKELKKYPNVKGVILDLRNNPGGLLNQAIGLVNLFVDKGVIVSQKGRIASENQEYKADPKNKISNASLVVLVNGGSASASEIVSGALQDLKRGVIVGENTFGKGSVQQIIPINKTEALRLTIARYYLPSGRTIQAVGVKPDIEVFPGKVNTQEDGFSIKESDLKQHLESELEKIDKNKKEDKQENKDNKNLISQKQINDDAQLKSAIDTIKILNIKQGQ
Test: colorimetric protease screening kit, absorbance at […] nm
Assay type: biochemical
Conditions: 1 mM inhibitor, 37 °C, 3 h, 0.25 μg protein in 50 μl

With `NCCc1ccc(S(=O)(=O)F)cc1` [AEBSF] the “reduction in activity at 1 mM” value was “reduction in activity in the presence of antipain, aprotin, AEBSF and PMSF inhibitors”.
